# Target: T1, PRMT5-MEP50 enzyme (Homo sapiens, UniProt O14744)
# T1 construct: One virus expresses full length human PRMT5 with Flag-tag at N-terminus; Flag (N); purchased Charles River (Argenta); host or cells: insect cells (Sf9), baculovirus co-infection
# Test: In vitro assay 1b: PRMT5-MEP50 high throughput mass spectrometer assay (SAH formation), 1.25 nM enzyme
# Type: biochemical
# Details: 1.25 nM enzyme, 1 μM SAM, 0.3 μM H2A, 30° C., 120 min; averaged values; read-out: pIC50 Assay 1b (converted)
# Excerpt: Experimental Procedures In Vitro Assay (Assay 1a and 1b)
# PRMT5-MEP50 enzyme was purchased from Charles River (Argenta). The enzyme complex was produced in insect cells (Sf9) infected simultaneously with two baculoviruses. One virus expresses full length human PRMT5 with Flag-tag at N-terminus, the second virus expresses full length MEP50 with His6-TEV cleavage at N-terminus. The protein was affinity purified using anti-Flag (M2) beads eluted with 3×FLAG peptide, followed by His-Select eluted with 0.5M imidazole. Eluted protein was then dialysed against tris-buffered saline (TBS) (pH 8.0) containing 20% glycerol and 3 mM dithiothreitol (DTT).
# Full-length untagged human recombinant histone H2A (residues 1-130, Genbank Accession #NM_021052, MW=14.1 kDa) expressed in E. coli was purchased from Reaction Biology Corporation, Cat #HMT-11-146. Reagents used for making reaction buffer or stopping reaction were purchased including Tris base (Sigma Cat #T-1503), NaCl (Sigma Cat #RGF-3270), MgCl2 (Sigma Cat #M0250), DTT (Invitrogen Cat #15508-013) and Formic Acid (Riedel deHaen, Cat #33015)
# PRMT5 catalyzes the sequential methylations of the terminal nitrogen atoms on the guanidine groups of arginine residues within proteins using co-substrate S-adenosyl-L-methionine (AdoMet, SAM), forming mono-methyl (MMA), syrmmetric-dimethyl arginine (sDMA) and S-adenosyl-L-homocysteine (AdoHcy, SAH). The enzyme activity was determined by following the product SAH formation using high throughput mass spectrometry (Agilent Rapidfire 300 System coupled to a Sciex 4000 series QTrap® triple-quad MS/MS). The reaction buffer was 20 mM Tris-HCl, pH 8.5, 50 mM NaCl, 5 mM MgCl2 and 1 mM DTT. The reaction activity was stopped using 1% formic acid (final concentration).
# The IC50 Studies were performed using eleven point dosing series made for each compound by serially diluted 1:2 in dimethyl sulfoxide (DMSO), with point 12 being a DMSO control. Compounds were first spotted to plates, and followed by addition of 2 μM SAM and 0.6 μM H2A (histone H2A) solution mixture. The same volume of enzyme solution was added to initiate the enzymatic reactions. The final concentrations of the reaction are at 1 μM SAM, 0.3 μM H2A and 10 nM enzyme (assay 1a) or or 1.25 nM enzyme (assay 1b). The reaction was incubated at 30° C. for 60 minutes (min) when 10 nM enzyme was used and for 120 min when 1.25 nM enzyme was used. Subsequently, the reaction was quenched by addition of formic acid to a final concentration of 1%. The inhibitions of SAH formation in the presence of compounds were calculated as a percentage of the control relative to the uninhibited reaction as a function of inhibitor concentration. The data were fit as follows: Y=Bottom+(Top−Bottom)/(1+10^((log IC50−X)*h))
# where IC50 is the inhibitor concentration (same unit as X) at 50% inhibition and h is the Hill slope. Y is percent of inhibition, X is log of compound concentration. Bottom and Top are the plateaus in same units as Y.
# T1 sequence (O14744 whole entry): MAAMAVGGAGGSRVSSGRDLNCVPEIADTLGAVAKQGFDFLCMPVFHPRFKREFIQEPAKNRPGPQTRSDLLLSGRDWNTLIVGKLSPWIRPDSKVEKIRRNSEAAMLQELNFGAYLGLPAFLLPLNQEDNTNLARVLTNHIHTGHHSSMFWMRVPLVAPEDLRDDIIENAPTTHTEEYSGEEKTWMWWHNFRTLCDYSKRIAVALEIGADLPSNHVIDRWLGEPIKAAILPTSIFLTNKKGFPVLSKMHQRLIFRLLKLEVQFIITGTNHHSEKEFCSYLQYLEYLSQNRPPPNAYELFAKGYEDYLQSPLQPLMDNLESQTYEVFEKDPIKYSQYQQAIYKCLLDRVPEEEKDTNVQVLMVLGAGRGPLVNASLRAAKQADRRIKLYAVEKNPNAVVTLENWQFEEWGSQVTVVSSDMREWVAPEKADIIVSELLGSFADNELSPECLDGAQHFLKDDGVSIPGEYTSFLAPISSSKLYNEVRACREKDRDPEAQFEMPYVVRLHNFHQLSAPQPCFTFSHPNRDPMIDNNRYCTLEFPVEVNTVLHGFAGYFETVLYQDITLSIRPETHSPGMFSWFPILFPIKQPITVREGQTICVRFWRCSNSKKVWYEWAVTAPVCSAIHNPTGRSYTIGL
# T1 sequence (Q9BQA1 whole entry partner): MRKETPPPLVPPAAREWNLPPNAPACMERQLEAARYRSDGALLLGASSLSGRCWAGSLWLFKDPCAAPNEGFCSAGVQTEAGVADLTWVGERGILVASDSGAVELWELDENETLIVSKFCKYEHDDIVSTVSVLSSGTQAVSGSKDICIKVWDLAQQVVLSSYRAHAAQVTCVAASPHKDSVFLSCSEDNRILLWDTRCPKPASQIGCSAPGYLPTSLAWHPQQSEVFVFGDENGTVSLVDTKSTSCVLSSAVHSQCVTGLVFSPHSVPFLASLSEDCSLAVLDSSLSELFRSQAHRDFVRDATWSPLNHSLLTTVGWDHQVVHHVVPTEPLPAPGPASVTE
row,SMILES,IC50 [µM]
1,Nc1ncnc2c1ccn2[C@@H]1C[C@H](CCc2ccn3cc(C(F)(F)F)nc3c2)[C@@H](O)[C@H]1O [Compound 23],0.0398
2,CC(=O)Nc1cn2ccc(CC[C@H]3C[C@@H](n4ccc5c(N)ncnc54)[C@H](O)[C@@H]3O)cc2n1 [Compound 31],0.0631
3,Cc1cn2ccc(OC[C@H]3C[C@@H](n4ccc5c(N)ncnc54)[C@H](O)[C@@H]3O)cc2n1 [Compound 33],0.00501
4,Nc1cc(/C=C/[C@H]2C[C@@H](n3ccc4c(N)ncnc43)[C@H](O)[C@@H]2O)ccn1 [Compound 36],2
5,Nc1cccc(/C=C/[C@H]2C[C@@H](n3ccc4c(N)ncnc43)[C@H](O)[C@@H]2O)n1 [Compound 37],0.794
6,Cn1cncc1CC[C@H]1C[C@@H](n2ccc3c(N)ncnc32)[C@H](O)[C@@H]1O [Compound 38],0.794
7,CC(c1cncn1C)[C@H]1C[C@@H](n2ccc3c(N)ncnc32)[C@H](O)[C@@H]1O (stereo partly drawn) [Compound 39],2
8,Nc1ccc2cccc(CCC[C@H]3C[C@@H](n4ccc5c(N)ncnc54)[C@H](O)[C@@H]3O)c2n1 [Compound 50],0.0316
9,Nc1cccc(CCCC[C@H]2C[C@@H](n3ccc4c(N)ncnc43)[C@H](O)[C@@H]2O)n1 [Compound 55],0.000398
10,Nc1cc(CCCC[C@H]2C[C@@H](n3ccc4c(N)ncnc43)[C@H](O)[C@@H]2O)ccn1 [Compound 57],0.0794
11,Nc1ncnc2c1ccn2[C@@H]1C[C@H](CCCCc2ccn3ccnc3c2)[C@@H](O)[C@H]1O [Compound 61],0.00794
12,Nc1ncnc2c1ccn2[C@@H]1C[C@H](CCCCc2ccncc2)[C@@H](O)[C@H]1O [Compound 63],2
13,Nc1ncnc2c1ccn2[C@@H]1C[C@H](CCCCc2ccccn2)[C@@H](O)[C@H]1O [Compound 64],0.1
14,Nc1ccc2cccc(CCCC[C@H]3C[C@@H](n4ccc5c(N)ncnc54)[C@H](O)[C@@H]3O)c2n1 [Compound 65],0.01
15,Nc1ncnc2c1ccn2[C@@H]1C[C@H](CCCCc2cccc3ccncc23)[C@@H](O)[C@H]1O [Compound 66],0.0398
16,Nc1ncnc2c1ccn2[C@@H]1C[C@H](CCc2cccnc2)[C@@H](O)[C@H]1O [Compound 67],0.501
17,Nc1ncnc2c1ccn2[C@@H]1C[C@H](CCc2cn[nH]c2)[C@@H](O)[C@H]1O [Compound 68],1.26
18,Nc1ncc(CC[C@H]2C[C@@H](n3ccc4c(N)ncnc43)[C@H](O)[C@@H]2O)cn1 [Compound 69],2
19,Nc1ncnc2c1ccn2[C@@H]1C[C@H](CCc2cnc(Nc3ccc(Cl)cc3)nc2)[C@@H](O)[C@H]1O [Compound 70],0.501
20,Nc1ncnc2c1ccn2[C@@H]1C[C@H](CCC2=CC3=NC(=O)CN3C=C2)[C@@H](O)[C@H]1O [Compound 71],0.1
21,Nc1ncnc2c1ccn2[C@@H]1C[C@H](CCc2cnc3c(c2)OCCN3)[C@@H](O)[C@H]1O [Compound 72],0.0126
22,Nc1ncnc2c1ccn2[C@@H]1C[C@H](CCc2cnc3c(c2)CCN3)[C@@H](O)[C@H]1O [Compound 73],0.0251
23,Nc1ncnc2c1ccn2[C@@H]1C[C@H](Cn2ccc3ccncc32)[C@@H](O)[C@H]1O [Compound 75],0.251

# Further lines, results first:
row,IC50 [µM],SMILES
1,0.0794,Nc1cccc(CCC[C@H]2C[C@@H](n3ccc4c(N)ncnc43)[C@H](O)[C@@H]2O)n1 [Compound 40]
2,0.398,Nc1cc2cccc(CCC[C@H]3C[C@@H](n4ccc5c(N)ncnc54)[C@H](O)[C@@H]3O)c2cn1 [Compound 41]
3,0.316,Nc1ncnc2c1ccn2[C@@H]1C[C@H](CCCc2cccnc2)[C@@H](O)[C@H]1O [Compound 42]
4,0.251,Nc1ncnc2c1ccn2[C@@H]1C[C@H](CCCc2cnc3ccccc3c2)[C@@H](O)[C@H]1O [Compound 43]
5,1.58,Nc1ncnc2c1ccn2[C@@H]1C[C@H](CCCc2cnc3c(N)cccc3c2)[C@@H](O)[C@H]1O [Compound 44]
6,0.501,Nc1cc(CCC[C@H]2C[C@@H](n3ccc4c(N)ncnc43)[C@H](O)[C@@H]2O)ccn1 [Compound 45]
7,> 2.51,Nc1ncnc2c1ccn2[C@@H]1C[C@H](CCCc2ccccn2)[C@@H](O)[C@H]1O [Compound 46]
8,1.58,Nc1ncnc2c1ccn2[C@@H]1C[C@H](CCCc2ccc3cccnc3c2)[C@@H](O)[C@H]1O [Compound 47]
9,0.0316,Nc1ncnc2c1ccn2[C@@H]1C[C@H](CCCc2ccn3ccnc3c2)[C@@H](O)[C@H]1O [Compound 48]
10,> 2.51,Nc1ncnc2c1ccn2[C@@H]1C[C@H](CCCc2ccncc2)[C@@H](O)[C@H]1O [Compound 49]
11,0.316,Nc1ncnc2c1ccn2[C@@H]1C[C@H](CCCc2cccc3ccncc23)[C@@H](O)[C@H]1O [Compound 51]
12,> 2.51,Nc1ncnc2c1ccn2[C@@H]1C[C@H](CCCc2cccc3cccnc23)[C@@H](O)[C@H]1O [Compound 52]
13,0.002,Nc1ccc(CCC[C@H]2C[C@@H](n3ccc4c(N)ncnc43)[C@H](O)[C@@H]2O)cn1 [Compound 53]
14,0.1,Nc1cc2cccc(CCCC[C@H]3C[C@@H](n4ccc5c(N)ncnc54)[C@H](O)[C@@H]3O)c2cn1 [Compound 54]
15,0.00794,Nc1ccc(CCCC[C@H]2C[C@@H](n3ccc4c(N)ncnc43)[C@H](O)[C@@H]2O)cn1 [Compound 56]
16,> 2.51,Nc1ncnc2c1ccn2[C@@H]1C[C@H](CCCCc2cccc3cccnc23)[C@@H](O)[C@H]1O [Compound 58]
17,2,Nc1ncnc2c1ccn2[C@@H]1C[C@H](CCCCc2cnc3c(N)cccc3c2)[C@@H](O)[C@H]1O [Compound 59]
18,0.251,Nc1ncnc2c1ccn2[C@@H]1C[C@H](CCCCc2ccc3cccnc3c2)[C@@H](O)[C@H]1O [Compound 60]
19,0.794,Nc1ncnc2c1ccn2[C@@H]1C[C@H](CCCCc2cnc3ccccc3c2)[C@@H](O)[C@H]1O [Compound 62]

# Source: US11098062B2, “Monocyclic and bicyclic ring system substituted carbanucleoside analogues for use as PRMT5 inhibitors” (Janssen Pharmaceutica NV, priority 2016, dated 2021)
